According to patent US12152038B2, “Vasopressin receptor antagonists and products and methods related thereto” (Neumora Therapeutics, Inc., priority 2017, dated 2024):

Target: T1, human Arginine Vasopressin Receptor 1a (AVPR1a) (Homo sapiens, UniProt P37288)
T1 construct: expressed in transfected cells; host or cells: CHO (CHO-AVPR1a, kept under G418 selection)
Test: Vasopressin V1a receptor antagonist assay (FLIPR calcium, CHO-AVPR1a cells)
Format: cell-based
Protocol: The purpose of this assay was to determine the inhibitory effect of synthesized compounds on the Vasopressin V1a receptor. The assay was performed in Chinese Hamster Ovary (CHO) cells expressing the human Arginine Vasopressin Receptor 1a (AVPR1a). Arginine Vasopressin (AVP) evokes an increase in intracellular calcium in CHO-AVPR1a cells which is measured in a fluorescence assay on the FLIPR^TETRA using calcium sensitive dyes. Test compounds were assessed for their ability to affect the magnitude of the response to AVP, with antagonists showing a concentration-dependent reduction in the AVP-mediated fluorescence. Compounds were tested in duplicate in a 10-point, 1:3 dilution series starting at a nominal concentration of 3 μM in the assay.
CHO-AVPR1a cells were maintained in routine culture in T175 Flasks at 37° C., 5% CO2. The growth medium consists of Ham's F12 media supplemented with 10% v/v fetal bovine serum, 1× non-essential amino acids, and 0.4 mg/ml Geneticin G418.
On day one, cells were harvested from T175 flasks when they are 80-90% confluent by first washing the cell monolayer with PBS and then dissociated using trypsin 0.05%/EDTA (3 mL for a T175 Flask). The flasks were incubated at room temperature until the cells detached. To the cell suspension, 10 ml of growth media was added and the cell density determined using the Vi-Cell automated cell counter. The cells were spun at 1000 rpm for 3 minutes, then the supernatant was carefully removed and discarded. The cell pellet was re-suspended at 6.0e^5 cells/ml in growth media. 25 μL of cells in growth media was dispensed into each well (15,000 cells per well) of a poly-D-lysine coated black, clear bottomed, 384-well plate. The plates were incubated at 37° C., 5% CO2 overnight.
At the start of each assay day, the potency of AVP was assessed and an EC80 concentration determined for subsequent compound profiling. Assays were performed using a two-step addition protocol on the FLIPR^TETRA; first addition of 5 μl of control or test compound at 10× final in assay buffer with 15 min incubation at 37° C., 5% CO2 followed by 10 μl of AVP at 6× final concentration in assay buffer. Changes in fluorescence were monitored for 3 min after both additions on the FLIPR^TETRA using 470-495 nm excitation and 515-575 nm emission wavelengths. The assay buffer consisted of HBSS (+Ca/+Mg) supplemented with 20 mM HEPES, and for the preparation of the AVP agonist only, 0.1% w/v bovine serum albumin. The assay was initiated by the removal of growth media from the cells and replacement with 45 μl of Calcium-6 dye (Molecular Devices) prepared at 1× in assay buffer. Cells were loaded with dye for 60-90 min at 37° C., 5% CO2 before initiation of the FLIPR^TETRA protocol. […] For compound profiling, test compounds were first serially diluted in DMSO (10-point curve, 1:3 dilutions) then diluted 33.3-fold in assay buffer prior to addition to the dye loaded cells on the FLIPR^TETRA. At the end of the incubation period, 10 μl of AVP in assay buffer containing 0.1% BSA was added at the previously determined EC80 concentration.
In-plate controls for the assay included balovaptan and PF-184563 concentration-response curves as reference V1a antagonists, and an AVP concentration-response curve to confirm the reproducibility of the EC80 used for the compound challenge.

T1 sequence (P37288 whole entry): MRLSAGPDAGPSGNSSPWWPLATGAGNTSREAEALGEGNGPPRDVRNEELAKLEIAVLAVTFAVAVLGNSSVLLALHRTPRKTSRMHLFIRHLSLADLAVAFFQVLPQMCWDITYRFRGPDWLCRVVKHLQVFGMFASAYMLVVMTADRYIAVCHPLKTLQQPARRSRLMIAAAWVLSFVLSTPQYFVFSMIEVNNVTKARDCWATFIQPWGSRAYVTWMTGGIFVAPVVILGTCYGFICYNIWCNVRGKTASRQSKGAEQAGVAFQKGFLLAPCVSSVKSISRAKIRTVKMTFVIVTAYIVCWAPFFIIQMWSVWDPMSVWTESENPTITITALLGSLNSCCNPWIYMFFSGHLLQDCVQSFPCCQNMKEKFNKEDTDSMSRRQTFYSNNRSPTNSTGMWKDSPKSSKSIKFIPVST

| IC50 | Structure (SMILES) |
| --- | --- |
| ≥ 1000 nM | CC1COc2cc(Cl)ccc2N1C(=O)N1CC2(C1)CN(c1cnccn1)C2 (single isomer, unassigned) [1-58-A] |
| ≥ 1000 nM | COc1ccc2c(c1)OCC(C)N2C(=O)N1CC2(C1)CN(c1ccc(F)cn1)C2 (single isomer, unassigned) [1-59-A] |
| ≥ 1000 nM | CC1COc2cc(F)ccc2N1C(=O)N1CC2(C1)CN(c1cccnn1)C2 (single isomer, unassigned) [1-62-A] |
| ≥ 1000 nM | CC1COc2cc(F)ccc2N1C(=O)N1CC2(C1)CN(c1ccccn1)C2 (single isomer, unassigned) [1-66-A] |
| ≥ 1000 nM | CC1COc2cc(F)ccc2N1C(=O)N1CC2(C1)CN(c1ncccc1F)C2 (single isomer, unassigned) [1-67-B] |
| 100 to 500 nM | CC1COc2cc(Cl)ccc2N1C(=O)N1CC2(C1)CN(c1ncccn1)C2 (single isomer, unassigned) [1-83-A] |
| 100 to 500 nM | CC1COc2cc(F)ccc2N1C(=O)N1CC2(C1)CN(c1noc3ccccc13)C2 (single isomer, unassigned) [4-3-A] |
| 100 to 500 nM | CC1CN(C(=O)N2CC3(C2)CN(c2ccc(F)cn2)C3)c2ccc(F)cc2O1 (single isomer, unassigned) [9-4-A] |
| < 100 nM | O=C(N1CC2(C1)CN(c1ncccc1F)C2)N1CCC(O)c2cc(Cl)ccc21 (single isomer, unassigned) [13-4-A] |
| < 100 nM | O=C(N1CC2(C1)CN(c1ccc(F)cn1)C2)N1CCC(O)c2c1ccc(Cl)c2F (single isomer, unassigned) [13-5-A] |
| ≥ 1000 nM | CC1COc2cc(F)ccc2N1C(=O)N1CC2(C1)CN(c1ncc(F)cn1)C2 (single isomer, unassigned) [18-4-A] |
| < 100 nM | CCc1ccnc(N2CC3(CN(C(=O)N4c5ccc(Cl)cc5OCC4C)C3)C2)n1 (single isomer, unassigned) [18-5-B] |
| ≥ 1000 nM | CC1COc2cc(F)c(F)cc2N1C(=O)N1CC2(C1)CN(c1ncccn1)C2 (single isomer, unassigned) [19-1-A] |
| ≥ 1000 nM | COc1ccnc(N2CC3(CN(C(=O)N4c5ccc(Cl)cc5OCC4C)C3)C2)n1 (single isomer, unassigned) [20-9-A] |
| ≥ 1000 nM | Cc1ccnc(N2CC3(CN(C(=O)N4c5ccc(Cl)cc5OCC4C)C3)C2)n1 (single isomer, unassigned) [20-12-A] |
| ≥ 1000 nM | CC1COc2cc(Cl)ccc2N1C(=O)N1CC2(C1)CN(c1cc(=O)n(C)cn1)C2 (single isomer, unassigned) [20-14-A] |
| 100 to 500 nM | CC1COc2cc(Cl)ccc2N1C(=O)N1CC2(C1)CN(c1nn(C)c3ncccc13)C2 (single isomer, unassigned) [20-15-A] |
| < 100 nM | COc1cccc(N2CC3(CN(C(=O)N4CCOc5cc(Cl)ccc54)C3)C2)n1 [1-2] |
| < 100 nM | COc1cccnc1N1CC2(CN(C(=O)N3CCOc4cc(Cl)ccc43)C2)C1 [1-6] |
| 100 to 500 nM | COc1ncccc1N1CC2(CN(C(=O)N3CCOc4cc(Cl)ccc43)C2)C1 [1-8] |
| 500 to 1000 nM | Cc1ncccc1N1CC2(CN(C(=O)N3CCOc4cc(Cl)ccc43)C2)C1 [1-9] |
| 100 to 500 nM | Cn1ccc(N2CC3(CN(C(=O)N4CCOc5cc(Cl)ccc54)C3)C2)n1 [1-10] |
| ≥ 1000 nM | O=C(N1CC2(C1)CN(c1ccc(OC(F)F)cn1)C2)N1CCOc2cc(Cl)ccc21 [1-12] |
| < 100 nM | Cc1ccc(N2CC3(CN(C(=O)N4CCOc5cc(Cl)ccc54)C3)C2)nc1 [1-13] |
| 100 to 500 nM | O=C(N1CC2(C1)CN(c1cncnc1)C2)N1CCOc2cc(Cl)ccc21 [1-17] |
| < 100 nM | O=C(N1CC2(C1)CN(c1cnc(Br)cn1)C2)N1CCOc2cc(Cl)ccc21 [1-19] |

Continued, compound first:

| Structure (SMILES) | IC50 |
| --- | --- |
| CCC1COc2cc(Cl)ccc2N1C(=O)N1CC2(C1)CN(c1ccc(F)cn1)C2 (single isomer, unassigned) [1-55-A] | 500 to 1000 nM |
| CC1COc2cc(Cl)ccc2N1C(=O)N1CC2(C1)CN(c1ccccn1)C2 (single isomer, unassigned) [1-60-A] | 500 to 1000 nM |
| CC1COc2cc(F)ccc2N1C(=O)N1CC2(C1)CN(c1cccnn1)C2 (single isomer, unassigned) [1-62-B] | < 100 nM |
| CC1COc2cc(F)ccc2N1C(=O)N1CC2(C1)CN(c1cnccn1)C2 (single isomer, unassigned) [1-65-A] | ≥ 1000 nM |
| CC1CN(C(=O)N2CC3(C2)CN(c2ccc(F)cn2)C3)c2ccc(Cl)cc2O1 (single isomer, unassigned) [9-3-B] | < 100 nM |
| O=C(N1CC2(C1)CN(c1ccc(F)cn1)C2)N1CCC(O)c2c1ccc(Cl)c2F (single isomer, unassigned) [13-5-B] | < 100 nM |
| CC1COc2cc(Cl)ccc2N1C(=O)N1CC2(C1)CN(c1ncc(F)cn1)C2 (single isomer, unassigned) [18-2-A] | < 100 nM |
| CC1COc2cc(Cl)ccc2N1C(=O)N1CC2(C1)CN(c1noc3cccnc13)C2 (single isomer, unassigned) [18-3-A] | ≥ 1000 nM |
| CCc1ccnc(N2CC3(CN(C(=O)N4c5ccc(Cl)cc5OCC4C)C3)C2)n1 (single isomer, unassigned) [18-5-A] | ≥ 1000 nM |
| CC1COc2cc(Cl)c(F)cc2N1C(=O)N1CC2(C1)CN(c1ncccn1)C2 (single isomer, unassigned) [19-2-A] | 100 to 500 nM |
| CC1COc2cc(F)c(F)cc2N1C(=O)N1CC2(C1)CN(c1ccc(F)cn1)C2 (single isomer, unassigned) [19-5-A] | 100 to 500 nM |
| CC1COc2cc(Cl)ccc2N1C(=O)N1CC2(C1)CN(c1cccnc1)C2 (single isomer, unassigned) [20-1-A] | ≥ 1000 nM |
| CC1COc2cc(F)ccc2N1C(=O)N1CC2(C1)CN(c1cc(C#N)ccn1)C2 (single isomer, unassigned) [20-3-A] | ≥ 1000 nM |
| Cc1ccnc(N2CC3(CN(C(=O)N4c5ccc(F)cc5OCC4C)C3)C2)c1 (single isomer, unassigned) [20-4-A] | ≥ 1000 nM |
| Cc1cnc(N2CC3(CN(C(=O)N4c5ccc(Cl)cc5OCC4C)C3)C2)cn1 (single isomer, unassigned) [20-5-A] | < 100 nM |
| COc1ccnc(N2CC3(CN(C(=O)N4c5ccc(Cl)cc5OCC4C)C3)C2)c1 (single isomer, unassigned) [20-8-A] | 100 to 500 nM |
| Cc1nccnc1N1CC2(CN(C(=O)N3c4ccc(Cl)cc4OCC3C)C2)C1 (single isomer, unassigned) [20-10-B] | ≥ 1000 nM |
| Cc1ccnc(N2CC3(CN(C(=O)N4c5ccc(Cl)cc5OCC4C)C3)C2)c1 (single isomer, unassigned) [20-11-A] | 500 to 1000 nM |
| Cc1ccnc(N2CC3(CN(C(=O)N4c5ccc(Cl)cc5OCC4C)C3)C2)c1 (single isomer, unassigned) [20-11-B] | < 100 nM |
| CC1COc2cc(Cl)ccc2N1C(=O)N1CC2(C1)CN(c1nccc(C#N)n1)C2 (single isomer, unassigned) [20-16-A] | ≥ 1000 nM |
| CC1COc2cc(Cl)ccc2N1C(=O)N1CC2(C1)CN(c1nccc(C#N)n1)C2 (single isomer, unassigned) [20-16-B] | < 100 nM |
| O=C(N1CC2(C1)CN(c1cncc(F)c1)C2)N1CCOc2cc(Cl)ccc21 [1-7] | 100 to 500 nM |
| Cn1cc(N2CC3(CN(C(=O)N4CCOc5cc(Cl)ccc54)C3)C2)cn1 [1-11] | ≥ 1000 nM |
| N#Cc1ccc(N2CC3(CN(C(=O)N4CCOc5cc(Cl)ccc54)C3)C2)nc1 [1-16] | 100 to 500 nM |
| Cc1nccnc1N1CC2(CN(C(=O)N3CCOc4cc(Cl)ccc43)C2)C1 [1-21] | < 100 nM |
| COc1cnc(N2CC3(CN(C(=O)N4CCOc5cc(Cl)ccc54)C3)C2)cn1 [1-23] | < 100 nM |
